In article PMC5514153, “Targeting PTPRZ inhibits stem cell-like properties and tumorigenicity in glioblastoma cells” (Scientific Reports, 2017):

Target: T1, PTPRG V1038F (Homo sapiens, UniProt P23470, V1038F)
T1 construct: Point mutants of the PTPRZ1-ICR, PTPRG-ICR, and PTPN1 catalytic domain were generated; GST (N); made in house
Experiment: Inhibitor sensitivity of point mutant PTPRG V1038F
Assay type: biochemical
Settings: 10 µM, vs wild-type PTPRG
Excerpt: Figure 5 Structural basis for PTPRZ inhibition of NAZ2329. (A) An enlarged view of the X-ray structure of human PTPRZ1-D1 complexed with NAZ2329 (PDB ID: 5H08) (left), X-ray structure of the apo (open) form of PTPRZ1-D1 (PDB ID: 5AWX, ref. [6], middle) and a computer-modeled structure of the closed form of PTPRZ1-D1 complexed with a competitive inhibitor, SCB4380 (ref. [6], right), are shown. PTPRZ1-D1 is shown as a gray surface representation, in which Cys1933 at the active site and Val-1911 at the bottom of the allosteric pocket are indicated in red and yellow, respectively. Inhibitors are colored according to the atomic species in a stick figure representation as follows: oxygen (red), nitrogen (blue), sulfur (yellow), and carbon (green). The bottom figures show the conformation of the WPD loop (orange) as cartoon representations, in which Asp1901 and Cys1933 are indicated by orange and red spheres, respectively. Side chains of Arg1939 at the active site, Met1902 in the WPD loop, and Val-1911 at the bottom of the allosteric binding area are also shown in the stick representation. (B) LigPlot representation of the NAZ2329 interaction with PTPRZ1-D1. The predicted hydrogen bonds (broken black lines) and residues (red spoked arcs) involved in the hydrophobic interaction are shown. […]

T1 sequence (P23470 763-1445 V1038F limits assumed): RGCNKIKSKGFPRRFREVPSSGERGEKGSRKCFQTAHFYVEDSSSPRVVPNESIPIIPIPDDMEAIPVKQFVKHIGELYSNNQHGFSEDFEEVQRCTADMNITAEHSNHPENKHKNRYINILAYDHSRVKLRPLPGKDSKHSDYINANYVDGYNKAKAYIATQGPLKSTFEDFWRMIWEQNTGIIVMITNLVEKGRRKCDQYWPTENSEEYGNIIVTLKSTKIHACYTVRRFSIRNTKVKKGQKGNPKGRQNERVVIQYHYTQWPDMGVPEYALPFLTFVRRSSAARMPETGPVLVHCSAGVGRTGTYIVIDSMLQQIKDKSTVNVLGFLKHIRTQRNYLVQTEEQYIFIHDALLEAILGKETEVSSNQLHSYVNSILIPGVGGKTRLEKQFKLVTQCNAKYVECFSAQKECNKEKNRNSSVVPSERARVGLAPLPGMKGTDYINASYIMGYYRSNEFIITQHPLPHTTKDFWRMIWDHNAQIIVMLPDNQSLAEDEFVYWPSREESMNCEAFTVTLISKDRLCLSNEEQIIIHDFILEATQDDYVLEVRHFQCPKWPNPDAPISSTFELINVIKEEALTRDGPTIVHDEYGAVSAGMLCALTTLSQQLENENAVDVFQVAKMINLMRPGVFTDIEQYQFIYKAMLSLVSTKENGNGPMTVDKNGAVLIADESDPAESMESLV

effect of V1038F mutation on sensitivity to inhibitor: resulted in resistance
Structure (SMILES): CCOc1ccc(C(F)(F)F)cc1CSc1ccsc1C(=O)NS(=O)(=O)c1ccccc1 [NAZ2329]
